The record followed here is patent EP1438307B1, “DERIVATIVES OF 4-(THIO- OR SELENOXANTHENE-9-YLIDENE)-PIPERIDINE OR ACRIDINE AND ITS USE AS A SELECTIVE 5-HT2B RECEPTOR ANTAGONIST” (Biofrontera Pharmaceuticals GmbH, priority 2001, dated 2003).

Each structure is given as a SMILES string.

The target of experiment [1] is T1, 5-HT2C receptor (Homo sapiens, UniProt P28335).
T1 construct: expressed in transfected cells; host or cells: Cos-7
T1 sequence (P28335 33-458): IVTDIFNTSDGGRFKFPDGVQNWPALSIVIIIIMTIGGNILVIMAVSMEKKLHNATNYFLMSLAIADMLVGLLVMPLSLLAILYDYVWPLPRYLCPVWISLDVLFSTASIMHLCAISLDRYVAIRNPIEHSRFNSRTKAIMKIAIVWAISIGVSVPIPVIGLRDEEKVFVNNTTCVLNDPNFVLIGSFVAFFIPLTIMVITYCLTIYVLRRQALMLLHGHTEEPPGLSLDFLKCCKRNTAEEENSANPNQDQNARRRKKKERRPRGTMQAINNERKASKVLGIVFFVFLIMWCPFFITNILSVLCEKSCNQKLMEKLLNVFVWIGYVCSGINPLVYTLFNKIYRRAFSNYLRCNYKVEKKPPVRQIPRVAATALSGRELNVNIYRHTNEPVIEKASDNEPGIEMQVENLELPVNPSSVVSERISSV
Put plainly: 5-HT2C receptor binding, [3H]mesulergine competition (counter screen). As to conditions: read-out: Receptor Affinity: pK Values 5NT2C receptor (converted). How it is done:
5-HT2C receptors were labelled in choroid plexus, Cos-7 cells expressing the human 5-HT2C receptor and in NIH-3T3 expressing the […]. Assays were conducted as described for the 5-HT2A receptor except that the radioligand was [^3H]mesulergine. The radioligand concentration for competition studies was approximately 0.2 nM while for saturation binding studies the concentration ranged from 0.1 to 18 nM. Non-specific binding was defined with 10 µM unlabelled mesulergine. Competition radioligand binding data was analyzed using a four parameter logistic equation and iterative curve-fitting techniques to obtain estimates of the IC50 and Hill slope. Kd values, determined from saturation binding studies were then used to calculate inhibition dissociation constants (Ki).

For experiment [2], the target named is T2, human 5-HT2B receptor (Homo sapiens, UniProt P41595).
T2 construct: expressed in transfected cells; host or cells: HEK 293 (transient)
Put plainly: Cloned human 5-HT2B receptor binding assay, [3H]-5HT. As to conditions: HEK 293 cells transfected with human 5-HT2B receptor, read-out: Receptor Affinity: pK Values 5HT2B receptor (converted). How it is done: The following describes an in vitro binding assay utilizing cloned 5-HT2B receptors radiolabelled with [^3H]-5HT. HEK 293 cells transiently transfected with an expression plasmid pXMD1-hu2B encoding the human 5-HT2B receptor (see Schmuck et al., FEBS Lett., 1994, 342, 85-90) were used as described previously (Schmuck et al., Eur. J. Pharmacol., 1996, 8, 959-967). Two days after transfection cells were harvested, pelleted at 500g for 5 min at 4°C, gently resuspended in ice-cold buffer1 (50 mM TRIS pH 7.7, 4 mM CaCl2) and homogenized using a Polytron PT 1200 tissue homogenizer (position 6 for 30 s). Cells were pelleted at 50,000g, 4°C for 10 min, washed with buffer1 and pelleted again. The final pellet was resuspended in incubation buffer (50 mM TRIS pH 7.7, 4 mM CaCl2, 10 µM pargyline and 0.1 % by weight ascorbic acid). The binding assay consisted of 300 µl of membrane suspension (protein concentration = 0.3 to 0.5 mg/ml), 150 µl of competing drug and 50 µl of [^3H]5-HT at a final concentration of 4 to 5 nM. The mixture was incubated at 37°C for 30 min and the assay terminated by rapid filtration and two washing steps with 5 ml of cold 20 mM Tris-HCl pH = 7.5, and 154 mM NaCl over Whatman GFB filters. Filters were counted by liquid scintillation. Non-specific binding was determined in the presence of an excess of 5-HT (100 µM). Bound radioligand represented less than 1 % of free radioligand. In competition experiments, specific binding represented about 60 % of total binding. Results expressed as pKi values are shown in Table 1 Human 5-HT2B receptors were labelled in HEK293 cells as described above, except that the radioligand was [^3H]-5HT and that the assay buffer contained pargyline in a concentration of […] and 0.1 % by weight of ascorbic acid. For competition binding studies the radioligand concentration was approximately 0.4 nM while for saturation binding studies the concentration of [^3H]-5HT ranged from 0.05 to 8 nM. Non-specific binding was defined with […]. Incubations were for 120 min at 4°C. Competition radioligand binding data was analyzed using a four parameter logistic equation and iterative curve-fitting techniques to obtain estimates of the IC50 and Hill slope. Kd values, determined from saturation binding studies were then used to calculate inhibition dissociation constants (Ki).

Experiment [3] has as its target T3, human H1 receptor (Homo sapiens, UniProt P35367).
T3 construct: expressed in transfected cells; host or cells: COS-7 (transient)
Put plainly: Cloned human H1 receptor binding assay, [3H]-mepyramine. As to conditions: COS-7 cells transfected with human H1 receptor, read-out: Receptor Affinity: pK Values H1 receptor (converted). How it is done: COS-7 cells were transiently transfected with an expression plasmid pCineohH1, pCineohH2, pCineohH3 and pCineohH4 encoding the human Histamine H1, H2. H3 or H4 receptor, respectively. Transfected cells were harvested after 48 h, homogenized in ice-cold 50 mM Na2/potassium phosphate buffer (pH 7.4) and used for radioligand binding studies. Cell homogenates (40 - 50 µg of protein) were incubated for 30 min at 25°C in 50 mM Na2/potassium phosphate buffer (pH 7.4) in 400 µl with the various concentrations of either [^3H]-mepyramine, [^3H]-thiotidine, [^3H]-R-α-Methylhistamine, and [^3H]-pyramilamine for cells expressing recombinant human H1, H2. H3 and H4 receptors, respectively. The nonspecific binding was defined in the presence of 1 µM mianserin. In displacement studies, cell homogenated were incubated either with 1 nM [^3H]-mepyramine, 15 nM [^3H]-thiotidine, 0.5 nM [^3H]-R-α-Methylhistamine, or 15 nM [^3H]-pyramilamine and increasing concentrations of competing ligands. The incubations were stopped by rapid dilution with 3 ml of ice-cold 50 mM Na2/potassium phosphate buffer (pH 7.4). The bound radioactivity was seperated by filatration through Whatman GF/C filters that had been treated with 0.3 % polyethyleneimine. Filters were washed twice in 3 ml of buffer and radioactivity retained on the filters was measured by liquid scinitllation counting. The concentration of 1-methyl-4-(3-ethoxy-9H-thioxanthene-9-ylidene)-piperidine producing 50% inhibition of binding (IC50) was determined using iterative curve fitting techniques.

Experiment [4] has as its target T4, 5-HT2A receptor (Homo sapiens, UniProt P28223).
T4 construct: expressed in transfected cells; host or cells: HEK293
The experiment can be described thus: 5-HT2A receptor binding, [3H]ketanserin competition (counter screen). As to conditions: read-out: Receptor Affinity: pK Values 5-HT2A receptor (converted). How it is done:
5-HT2A receptors were labelled with [^3H]ketanserin in human cortex, in HEK293 cells expressing a cloned human 5-HT2A receptor and in HEK293 cells expressing the rat 5-HT2A receptor. For competition binding studies the ligand concentration was approximately 0.1 nM. For saturation binding studies concentrations of radioligand ranged from 0.01 nM to 2.0 nM. Assays were conducted in 0.5 ml of assay buffer (50 mM Tris-HCl, 4 mM calcium chloride, 0.1 % by weight ascorbic acid) (pH 7.4 at 4°C). Non-specifc binding was defined with […] unlabelled ketanserin. After a 60 min incubation at 32°C, membranes were harvested onto filters treated with 0.1 % by weight of polyethylenimine and the bound radioactivity was determined. Competition radioligand binding data was analyzed using a four parameter logistic equation and iterative curve-fitting techniques to obtain estimates of the IC50 and Hill slope. Kd values, determined from saturation binding studies were then used to calculate inhibition dissociation constants (Ki).
For orientation: The purpose of a counterscreen is to sort out artefacts and off-target activity.

T2 sequence (P41595 whole entry): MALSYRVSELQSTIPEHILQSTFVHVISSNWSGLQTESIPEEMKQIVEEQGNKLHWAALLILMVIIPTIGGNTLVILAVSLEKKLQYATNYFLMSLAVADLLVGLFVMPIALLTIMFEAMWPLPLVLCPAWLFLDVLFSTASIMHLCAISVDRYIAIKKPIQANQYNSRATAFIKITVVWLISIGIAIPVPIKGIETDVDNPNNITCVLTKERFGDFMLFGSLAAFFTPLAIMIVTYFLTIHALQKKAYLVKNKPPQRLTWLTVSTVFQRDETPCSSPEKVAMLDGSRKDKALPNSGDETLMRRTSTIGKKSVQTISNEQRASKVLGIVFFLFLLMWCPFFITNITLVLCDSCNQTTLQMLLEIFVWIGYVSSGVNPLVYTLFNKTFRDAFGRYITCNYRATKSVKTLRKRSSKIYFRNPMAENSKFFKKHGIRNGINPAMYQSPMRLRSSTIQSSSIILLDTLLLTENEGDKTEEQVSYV
T3 sequence (P35367 whole entry): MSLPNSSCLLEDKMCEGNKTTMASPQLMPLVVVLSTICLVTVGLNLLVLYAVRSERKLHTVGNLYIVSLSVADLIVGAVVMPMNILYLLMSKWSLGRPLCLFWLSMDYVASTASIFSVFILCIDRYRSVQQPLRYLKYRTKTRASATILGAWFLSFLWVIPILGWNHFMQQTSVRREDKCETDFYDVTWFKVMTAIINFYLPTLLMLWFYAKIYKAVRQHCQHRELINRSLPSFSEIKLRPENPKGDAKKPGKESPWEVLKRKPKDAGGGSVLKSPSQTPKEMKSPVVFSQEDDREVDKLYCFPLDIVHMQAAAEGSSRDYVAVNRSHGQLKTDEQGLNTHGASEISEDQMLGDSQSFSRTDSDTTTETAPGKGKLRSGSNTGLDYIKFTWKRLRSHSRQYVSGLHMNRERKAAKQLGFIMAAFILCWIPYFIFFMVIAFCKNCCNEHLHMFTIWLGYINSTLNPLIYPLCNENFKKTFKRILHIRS
T4 sequence (P28223 whole entry): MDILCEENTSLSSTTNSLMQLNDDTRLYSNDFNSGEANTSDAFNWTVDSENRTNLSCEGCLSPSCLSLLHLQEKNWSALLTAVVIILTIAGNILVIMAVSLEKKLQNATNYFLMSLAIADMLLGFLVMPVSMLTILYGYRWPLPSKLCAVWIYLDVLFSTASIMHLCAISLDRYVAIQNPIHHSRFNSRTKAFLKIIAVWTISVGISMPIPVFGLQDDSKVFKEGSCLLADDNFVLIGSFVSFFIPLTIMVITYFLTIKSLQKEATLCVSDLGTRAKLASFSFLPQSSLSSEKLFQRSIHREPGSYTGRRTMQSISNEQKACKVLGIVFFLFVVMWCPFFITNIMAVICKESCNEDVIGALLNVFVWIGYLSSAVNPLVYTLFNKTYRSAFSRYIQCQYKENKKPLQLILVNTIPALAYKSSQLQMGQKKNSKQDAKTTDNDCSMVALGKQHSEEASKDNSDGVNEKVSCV

As for `CCOc1ccc2c(c1)Nc1ccccc1C2=C1CCN(C)CC1` [3-Ethoxy-9-(1-methyl-piperidine-4-ylidene)-9,10-dihydro-acridine], the Ki in experiment [1] is 37.2 nM; in experiment [2], 0.741 nM; in experiment [3], 29.5 nM; in experiment [4] it was 1.17 nM.

As to `CCOc1ccc2c(c1)Sc1cccc(O)c1C2=C1CCN(C)CC1` [4-(6-Ethoxy-1-hydroxy-thioxanthen-9-yliden)-1-methyl-piperidine], the Ki in experiment [1] was 13.8 nM; in experiment [2], 0.0115 nM; in experiment [3] it was 36.3 nM; in experiment [4], 1.51 nM.

Consider `CCOc1ccc2c(c1)Sc1cccc(OC)c1C2=C1CCN(C)CC1` [4-(6-Ethoxy-1-methoxy-thioxanthen-9-yliden)-1-methyl-piperidine], for which the Ki is 17 nM in experiment [1], 0.0447 nM in experiment [2], 3.72 nM in experiment [3] and 1.02 nM in experiment [4].

With `CC(C)c1ccc2c(c1)Sc1cccc(O)c1C2=C1CCN(C)CC1` [4-(6-Isopropyl-1-hydroxy-thioxanthen-9-yliden)-1-methyl-piperidine], the Ki in experiment [1] was 30.2 nM; in experiment [2] it was 0.12 nM; in experiment [3], 35.5 nM; in experiment [4], 0.776 nM.

As to `COc1cccc2c1C(=C1CCN(C)CC1)c1ccc(C(C)C)cc1S2` [4-(6-Isopropyl-1-methoxy-thioxanthen-9-yliden)-1-methyl-piperidine], the Ki in experiment [1] is 16.2 nM; in experiment [2], 0.17 nM; in experiment [3] it was 10.5 nM; in experiment [4] it was 0.741 nM.

For the molecule `COc1ccc2c(c1)Sc1cccc(OC)c1C2=C1CCN(C)CC1` [4-(6-Methoxy-1-methoxy-thioxanthen-9-yliden)-1-methyl-piperidine], the Ki in experiment [1] is 1.55 nM; in experiment [2], 0.00871 nM; in experiment [3] it was 0.129 nM; in experiment [4], 0.0427 nM.
